13 molecules from US20230159527A1, “COMPOUNDS AS BCL-2 INHIBITORS” (Fochon Pharmaceuticals, Ltd., priority 2020, published 2023) can be followed below.

One assay deals with DoHH2 cells. Nature of the assay: Cell proliferation assay, DoHH2 cells (MTS, 120 h). Format: cell-based. The procedure: MTS testing kit was purchased from Promega (Madison, Wis., USA). The RPMI-1640, Fetal bovine serum and Penicillin-Streptomycin were purchased from BI (Biological Industries, Beit Haemek, Israel). Dimethyl sulfoxide (DMSO) was purchased from Sigma (St. Louis, Mo., USA). DoHH2 (DSMZ catalog #: ACC47) cells were cultured in RPMI-1640 supplemented with Penicillin-Streptomycin and 10% FBS.
To investigate whether a compound is able to inhibit the activity of BCL-2 in cells, a mechanism-based assay using DoHH2 lines was developed. In this assay, the inhibition of BCL-2 was reflected by the inhibition of cell proliferation of DoHH2 cells. Cells were plated into 96-well plates at the optimized cell density of 5000 cells/well. Plates were incubated at 37° C., with 5% CO2 for 4h. Compounds were serially diluted and added to the plates with the final concentrations of 10000, 3333.3, 1111.1, 370.4, 123.5, 41.2, 13.7, 4.6 and 1.5 nM. Plates were incubated at 37° C., with 5% CO2 for 120 h. 20 μl MTS was added into each well and the plates were incubated at 37° C., with 5% CO2 for exactly 2 h. The absorbance was measured by a microplate reader at 490 nm. IC50 was calculated using GraphPad Prism 5.0 software.

The subject of a further assay is Toledo cells. In words: Cell proliferation assay, Toledo cells (MTS, 72 h). As to conditions: Toledo cells, MTS, read-out: Toledo IC50. The class given is cell-based. The essentials:
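IC50 was derived from 490 nm absorbance after a 2 h MTS step. Before that, compounds at 1.5–10000 nM final (nine points) acted on Toledo cells for 72 h at 37 °C, 5% CO2. Cells were seeded at 30000/well in 10% FBS RPMI-1640 and rested 4 h before dosing.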

pIC50: −log10 of the molar value. Read-outs that look alike come from different tables or passages of the source.

A word on the pIC50: it is the IC50 on a negative log10 scale, so that one unit is a factor of ten. Consider `CC(C)c1ccccc1[C@@H]1COCCN1C1CC2(CCN(c3ccc(C(=O)NS(=O)(=O)c4cnc(NC[C@H]5CC[C@](C)(O)CC5)c([N+](=O)[O-])c4)c(Oc4cnc5[nH]cc(F)c5c4)c3)CC2)C1` (single isomer, unassigned) [Example A-128, 2-((3-fluoro-1H-pyrrolo[2,3-b]pyridin-5-yl)oxy)-N-((6-((((1r,4r)-4-hydroxy-4-methylcyclohexyl)methyl)amino)-5-nitropyridin-3-yl)sulfonyl)-4-(2-((R or S)-3-(2-isopropylphenyl)morpholino)-7-azaspiro[3.5]nonan-7-yl) benzamide], for which the pIC50 in the assay on DoHH2 cells (Homo sapiens, DOHH-2) was no less than 9.00; in the assay with Toledo cells (Homo sapiens) it was 9.00.

Take `O=C(NS(=O)(=O)c1cc2c(c([N+](=O)[O-])c1)O[C@H](CN1CCOCC1)CO2)c1ccc(N2CCC3(CC2)CC(N2CCOC[C@H]2c2ccccc2C2CC2)C3)cc1Oc1cnc2[nH]ccc2c1` (single isomer, unassigned) [Example E-41, 2-((1H-pyrrolo [2,3-b]pyridin-5-yl)oxy)-4-(2-((R or S)-3-(2-cyclopropylphenyl)morpholino)-7-azaspiro[3.5]nonan-7-yl)-N-(((R)-2-(morpholinomethyl)-8-nitro-2,3-dihydrobenzo [b][1,4]dioxin-6-yl)sulfonyl) benzamide]: the pIC50 in the assay on DoHH2 cells (Homo sapiens, DOHH-2) is no less than 9.00; in the assay with Toledo cells (Homo sapiens), 9.00.

In the case of `CC(C)c1ccccc1[C@@H]1CCC[C@@H]1N1CC2(CCN(c3ccc(C(=O)NS(=O)(=O)c4cnc(NC[C@H]5CC[C@](C)(O)CC5)c([N+](=O)[O-])c4)c(Oc4cnc5[nH]ccc5c4)c3)CC2)C1` (single isomer, unassigned) [Example A-136, 2-((1H-pyrrolo[2,3-b]pyridin-5-yl)oxy)-N-((6-((((1r,4r)-4-hydroxy-4-methylcyclohexyl)methyl)amino)-5-nitropyridin-3-yl)sulfonyl)-4-(2-((1R,2R or 1S, 2S)-2-(2-isopropylphenyl)cyclo-pentyl)-2,7-diazaspiro[3.5]nonan-7-yl)benzamide], the pIC50 with DoHH2 cells (Homo sapiens, DOHH-2) was no less than 9.00; in the assay with Toledo cells (Homo sapiens) it was 9.00.

For the molecule `CC(C)c1ccccc1[C@@H]1CCCN1C1CC2(CCN(c3ccc(C(=O)NS(=O)(=O)c4cc([N+](=O)[O-])c5c(n4)OC[C@H]([C@H]4CC[C@@](C)(O)CC4)N5)c(Oc4cnc5[nH]ccc5c4)c3)CC2)C1` (single isomer, unassigned) [Example B-35, 2-((1H-pyrrolo[2,3-b]pyridin-5-yl)oxy)-N-(((S)-2-((1s,4R)-4-hydroxy-4-methylcyclohexyl)-8-nitro-2,3-dihydro-1H-pyrido[2,3-b] [1,4]oxazin-6-yl)sulfonyl)-4-(2-((R or S)-2-(2-isopropylphenyl)pyrrolidin-1-yl)-7-azaspiro[3.5]nonan-7-yl)benzamide], in the assay on DoHH2 cells (Homo sapiens, DOHH-2), the pIC50 is no less than 9.00.

With `CC(C)c1ccccc1C1CN(C)CCN1C1CC2(CCN(c3ccc(C(=O)NS(=O)(=O)c4cnc(NCC5CCC(C)(O)CC5)c([N+](=O)[O-])c4)c(Oc4cnc5[nH]ccc5c4)c3)CC2)C1` (single isomer, unassigned) [Example A-62, (R or S)-2-((1H-pyrrolo[2,3-b]pyridin-5-yl)oxy)-N-((6-(((4-hydroxy-4-methylcyclohexyl)methyl)amino)-5-nitropyridin-3-yl)sulfonyl)-4-(2-(2-(2-isopropylphenyl)-4-methyl-piperazin-1-yl)-7-azaspiro[3.5]nonan-7-yl)benzamide], the pIC50 was no less than 9.00 with DoHH2 cells (Homo sapiens, DOHH-2) and 9.00 with Toledo cells (Homo sapiens).

Molecule `CC(C)c1ccccc1[C@@H]1CCCN1C1CC2(CCN(c3ccc(C(=O)NS(=O)(=O)c4cnc(NCC5CCC(C)(O)CC5)c([N+](=O)[O-])c4)c(Oc4cnc5[nH]ccc5c4)c3)CC2)C1` (stereo partly drawn) [Example A-6b, (S)-2-((1H-pyrrolo[2,3-b]pyridin-5-yl)oxy)-N-((6-(((4-hydroxy-4-methylcyclohexyl)methyl)amino)-5-nitropyridin-3-yl)sulfonyl)-4-(2-(2-(2-isopropylphenyl)pyrrolidin-1-yl)-7-azaspiro[3.5]nonan-7-yl) benzamide] gave a pIC50 in the assay on DoHH2 cells (Homo sapiens, DOHH-2) of no less than 9.00.

For the molecule `CC(C)c1ccccc1C1COCCN1C1CC2(CCN(c3ccc(C(=O)NS(=O)(=O)c4cc5c(c([N+](=O)[O-])c4)O[C@@H](CN4CCOCC4)CO5)c(Oc4cnc5[nH]ccc5c4)c3)CC2)C1` (single isomer, unassigned) [Example E-36, 2-((1H-pyrrolo [2,3-b]pyridin-5-yl)oxy)-4-(2-((R or S)-3-(2-isopropylphenyl)morpholino)-7-azaspiro[3.5]nonan-7-yl)-N-(((S)-2-(morpholinomethyl)-8-nitro-2,3-dihydrobenzo [b][1,4]dioxin-6-yl)sulfonyl)benzamide], in the assay with DoHH2 cells (Homo sapiens, DOHH-2), the pIC50 is no less than 9.00.

For the molecule `O=C(NS(=O)(=O)c1cc2c(c([N+](=O)[O-])c1)O[C@@H](CN1CCOCC1)CO2)c1ccc(N2CCC3(CC2)CC(N2CCC[C@H]2c2ccccc2C2CC2)C3)cc1Oc1cnc2[nH]ccc2c1` (single isomer, unassigned) [Example E-34, 2-((1H-pyrrolo [2,3-b]pyridin-5-yl)oxy)-4-(2-((R or S)-2-(2-cyclopropylphenyl)pyrrolidin-1-yl)-7-azaspiro[3.5]nonan-7-yl)-N-(((5)-2-(morpholinomethyl)-8-nitro-2,3-dihydrobenzo [b][1,4]dioxin-6-yl)sulfonyl) benzamide], the pIC50 with DoHH2 cells (Homo sapiens, DOHH-2) was no less than 9.00.

With `CC(C)c1ccccc1C1COCCN1C1CC2(CCN(c3ccc(C(=O)NS(=O)(=O)c4cnc(NCC5CCC(N=S(C)(C)=O)CC5)c([N+](=O)[O-])c4)c(Oc4cnc5[nH]ccc5c4)c3)CC2)C1` (single isomer, unassigned) [Example A-57, 2-((1H-pyrrolo[2,3-b]pyridin-5-yl)oxy)-N-((6-((((1r,4r)-4-((dimethyl (oxo)-λ^6-sulfanylidene)amino)cyclohexyl)methyl)amrno)-5-nitro-pyridin-3-yl)sulfonyl)-4-(2-((R or S)-3-(2-isopropylphenyl)morpho-lino)-7-azaspiro[3.5]nonan-7-yl) benzamide], the pIC50 with DoHH2 cells is no less than 9.00; in the assay with Toledo cells, 8.70.

In the case of `O=C(NS(=O)(=O)c1cc2c(c([N+](=O)[O-])c1)O[C@@H](CN1CCOCC1)CO2)c1ccc(N2CCC3(CC2)CC(N2CCOC[C@H]2c2ccccc2C2CC2)C3)cc1Oc1cnc2[nH]ccc2c1` (single isomer, unassigned) [Example E-37, 2-((1H-pyrrolo [2,3-b]pyridin-5-yl)oxy)-4-(2-((R or S)-3-(2-cyclopropylphenyl)morpholino)-7-azaspiro[3.5]nonan-7-yl)-N-(((S)-2-(morpholinomethyl)-8-nitro-2,3-dihydrobenzo [b][1,4]dioxin-6-yl)sulfonyl) benzamide], the pIC50 with DoHH2 cells (Homo sapiens, DOHH-2) was no less than 9.00.

`CC(C)c1ccccc1[C@@H]1COCCN1C1CC2(CCN(c3ccc(C(=O)NS(=O)(=O)c4cc([N+](=O)[O-])c5c(n4)OC[C@H]([C@H]4CC[C@@](C)(O)CC4)N5)c(Oc4cnc5[nH]ccc5c4)c3)CC2)C1` (single isomer, unassigned) [Example B-48, 2-((1H-pyrrolo[2,3-b]pyridin-5-yl)oxy)-N-(((S)-2-((1s,4R)-4-hydroxy-4-methylcyclohexyl)-8-nitro-2,3-dihydro-1H-pyrido[2,3-b] [1,4]oxazin-6-yl)sulfonyl)-4-(2-((R or S)-3-(2-isopropylphenyl)morpholino)-7-azaspiro[3.5]nonan-7-yl) benzamide] gave a pIC50 with DoHH2 cells (Homo sapiens, DOHH-2) of no less than 9.00.

Regarding `O=C(NS(=O)(=O)c1cc([N+](=O)[O-])c2c(n1)OC[C@H](COC1CCOCC1)N2)c1ccc(N2CCC3(CC2)CC(N2CCCC2c2ccccc2C2CC2)C3)cc1Oc1cnc2[nH]ccc2c1` (single isomer, unassigned) [Example B-46, 2-((1H-pyrrolo[2,3-b]pyridin-5-yl)oxy)-4-(2-((R or S)-2-(2-cyclopropylphenyl)pyrrolidin-1-yl)-7-azaspiro[3.5]nonan-7-yl)-N-(((S)-8-nitro-2-(((tetrahydro-2H-pyran-4-yl)oxy)methyl)-2,3-dihydro-1H-pyrido[2,3-b] [1,4]oxazin-6-yl)sulfonyl)benzamide], the pIC50 with DoHH2 cells (Homo sapiens, DOHH-2) is no less than 9.00.

`CC(C)c1ccccc1C1CCCN1C1CC2(CCN(c3ccc(C(=O)NS(=O)(=O)c4cc([N+](=O)[O-])c5c(n4)OC[C@@H](Cc4ccccc4)N5)c(Oc4cnc5[nH]ccc5c4)c3)CC2)C1` (single isomer, unassigned) [Example B-36, 2-((1H-pyrrolo[2,3-b]pyridin-5-yl)oxy)-N-(((R)-2-benzyl-8-nitro-2,3-dihydro-1H-pyrido[2,3-b] [1,4]oxazin-6-yl)sulfonyl)-4-(2-((R or S)-2-(2-isopropylphenyl)pyrrolidin-1-yl)-7-azaspiro[3.5]nonan-7-yl)benzamide] gave a pIC50 with DoHH2 cells (Homo sapiens, DOHH-2) of no less than 9.00.
